What all share (conditions): Compound concentration 10 µM
In assay [1] the target is T1, Alpha-2B adrenergic receptor (Homo sapiens) (UniProt P18089).
T1 sequence (whole entry): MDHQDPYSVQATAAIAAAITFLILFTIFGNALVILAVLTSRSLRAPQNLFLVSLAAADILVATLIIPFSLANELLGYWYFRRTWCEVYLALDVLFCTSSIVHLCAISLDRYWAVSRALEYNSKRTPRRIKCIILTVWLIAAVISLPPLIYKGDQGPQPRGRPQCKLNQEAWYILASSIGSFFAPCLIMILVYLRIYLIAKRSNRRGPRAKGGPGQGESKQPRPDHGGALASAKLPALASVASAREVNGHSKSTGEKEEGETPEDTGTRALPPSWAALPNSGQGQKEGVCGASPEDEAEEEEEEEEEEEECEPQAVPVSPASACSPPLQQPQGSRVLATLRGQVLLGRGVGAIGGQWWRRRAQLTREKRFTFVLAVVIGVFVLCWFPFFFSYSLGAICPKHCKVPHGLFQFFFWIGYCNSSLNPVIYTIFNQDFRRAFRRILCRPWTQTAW
Description: PDSP Primary Binding target: ADRA2B - Compounds are tested at 10 uM concentration, plate are incubated at room temperature in the dark for 90 minutes. Reaction are stopped by vacuum filtration onto 0.3% polyethyleneimine soaked filter mats using Filtermate harvester. Scintilation cocktail is then melted onto microwave-dried filters on a hot plate and the radio activity is counted in Microbia counter.

Assay [2] concerns the target T2, Alpha-2C adrenergic receptor (Homo sapiens) (UniProt P18825).
T2 sequence (whole entry): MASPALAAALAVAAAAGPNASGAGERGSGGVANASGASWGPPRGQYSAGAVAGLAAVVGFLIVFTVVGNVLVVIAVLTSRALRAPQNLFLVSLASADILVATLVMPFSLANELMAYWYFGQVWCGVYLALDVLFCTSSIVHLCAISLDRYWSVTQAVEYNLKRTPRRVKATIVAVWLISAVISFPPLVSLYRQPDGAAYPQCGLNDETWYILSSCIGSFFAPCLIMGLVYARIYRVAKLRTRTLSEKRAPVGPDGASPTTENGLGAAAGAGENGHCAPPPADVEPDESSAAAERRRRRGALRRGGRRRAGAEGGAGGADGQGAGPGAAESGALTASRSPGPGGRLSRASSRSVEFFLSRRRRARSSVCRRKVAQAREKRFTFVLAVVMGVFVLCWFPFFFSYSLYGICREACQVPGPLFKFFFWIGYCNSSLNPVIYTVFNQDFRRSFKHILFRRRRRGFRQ
Description: PDSP Primary Binding target: ADRA2C - Compounds are tested at 10 uM concentration, plate are incubated at room temperature in the dark for 90 minutes. Reaction are stopped by vacuum filtration onto 0.3% polyethyleneimine soaked filter mats using Filtermate harvester. Scintilation cocktail is then melted onto microwave-dried filters on a hot plate and the radio activity is counted in Microbia counter.

The target in assay [3] is T3, Muscarinic acetylcholine receptor M4 (Homo sapiens) (UniProt P08173).
T3 sequence (whole entry): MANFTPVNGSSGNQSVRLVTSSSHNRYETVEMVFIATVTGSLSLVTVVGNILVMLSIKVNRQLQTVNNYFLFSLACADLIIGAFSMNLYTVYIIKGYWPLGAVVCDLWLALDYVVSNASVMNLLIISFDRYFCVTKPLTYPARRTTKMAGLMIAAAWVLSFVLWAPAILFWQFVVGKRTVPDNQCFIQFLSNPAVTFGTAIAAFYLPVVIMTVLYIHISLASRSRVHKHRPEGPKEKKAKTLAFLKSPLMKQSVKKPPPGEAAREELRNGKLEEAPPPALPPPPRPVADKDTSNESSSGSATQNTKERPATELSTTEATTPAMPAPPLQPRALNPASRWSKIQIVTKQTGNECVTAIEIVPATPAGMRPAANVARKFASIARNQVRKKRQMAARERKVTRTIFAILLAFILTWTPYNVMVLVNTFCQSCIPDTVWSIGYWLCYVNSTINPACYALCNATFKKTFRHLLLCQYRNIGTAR
Description: PDSP Primary Binding target: CHRM4 - Compounds are tested at 10 uM concentration, plate are incubated at room temperature in the dark for 90 minutes. Reaction are stopped by vacuum filtration onto 0.3% polyethyleneimine soaked filter mats using Filtermate harvester. Scintilation cocktail is then melted onto microwave-dried filters on a hot plate and the radio activity is counted in Microbia counter.

Assay [4] addresses 5-hydroxytryptamine receptor 1E (Homo sapiens) (UniProt P28566).
Description: PDSP Primary Binding target: HTR1E - Compounds are tested at 10 uM concentration, plate are incubated at room temperature in the dark for 90 minutes. Reaction are stopped by vacuum filtration onto 0.3% polyethyleneimine soaked filter mats using Filtermate harvester. Scintilation cocktail is then melted onto microwave-dried filters on a hot plate and the radio activity is counted in Microbia counter.
Assay [5] has as its target 5-hydroxytryptamine receptor 6 (Homo sapiens) (UniProt P50406).
Description: PDSP Primary Binding target: HTR6 - Compounds are tested at 10 uM concentration, plate are incubated at room temperature in the dark for 90 minutes. Reaction are stopped by vacuum filtration onto 0.3% polyethyleneimine soaked filter mats using Filtermate harvester. Scintilation cocktail is then melted onto microwave-dried filters on a hot plate and the radio activity is counted in Microbia counter.
Assay [6] concerns the target Sigma non-opioid intracellular receptor 1 (Homo sapiens) (UniProt Q99720).
Description: PDSP Primary Binding target: SIGMAR1 - Compounds are tested at 10 uM concentration, plate are incubated at room temperature in the dark for 90 minutes. Reaction are stopped by vacuum filtration onto 0.3% polyethyleneimine soaked filter mats using Filtermate harvester. Scintilation cocktail is then melted onto microwave-dried filters on a hot plate and the radio activity is counted in Microbia counter.
Assay [7] deals with Sodium-dependent noradrenaline transporter (Homo sapiens) (UniProt P23975).
Chain of Sodium-dependent noradrenaline transporter (Homo sapiens) (P23975 whole entry): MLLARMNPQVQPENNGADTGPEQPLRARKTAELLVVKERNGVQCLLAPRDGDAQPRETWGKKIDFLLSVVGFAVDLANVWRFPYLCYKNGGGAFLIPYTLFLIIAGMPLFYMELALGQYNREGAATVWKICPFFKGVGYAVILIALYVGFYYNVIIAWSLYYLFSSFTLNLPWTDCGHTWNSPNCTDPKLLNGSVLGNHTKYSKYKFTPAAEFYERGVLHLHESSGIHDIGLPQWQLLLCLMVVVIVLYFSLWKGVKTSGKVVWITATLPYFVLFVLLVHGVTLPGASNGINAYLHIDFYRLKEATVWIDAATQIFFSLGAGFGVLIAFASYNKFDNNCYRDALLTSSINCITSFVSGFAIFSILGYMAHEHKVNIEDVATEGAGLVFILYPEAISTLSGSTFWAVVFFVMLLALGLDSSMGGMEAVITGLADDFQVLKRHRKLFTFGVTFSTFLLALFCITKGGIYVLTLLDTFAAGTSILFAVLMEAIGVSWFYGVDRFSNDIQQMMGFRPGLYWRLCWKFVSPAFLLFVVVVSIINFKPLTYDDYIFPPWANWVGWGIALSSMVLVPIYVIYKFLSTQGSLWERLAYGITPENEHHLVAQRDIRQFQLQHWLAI
Description: PDSP Primary Binding target: SLC6A2 - Compounds are tested at 10 uM concentration, plate are incubated at room temperature in the dark for 90 minutes. Reaction are stopped by vacuum filtration onto 0.3% polyethyleneimine soaked filter mats using Filtermate harvester. Scintilation cocktail is then melted onto microwave-dried filters on a hot plate and the radio activity is counted in Microbia counter.
The target of assay [8] is Sodium-dependent serotonin transporter (Homo sapiens) (UniProt P31645).
Chain of Sodium-dependent serotonin transporter (Homo sapiens) (P31645 whole entry, looked up): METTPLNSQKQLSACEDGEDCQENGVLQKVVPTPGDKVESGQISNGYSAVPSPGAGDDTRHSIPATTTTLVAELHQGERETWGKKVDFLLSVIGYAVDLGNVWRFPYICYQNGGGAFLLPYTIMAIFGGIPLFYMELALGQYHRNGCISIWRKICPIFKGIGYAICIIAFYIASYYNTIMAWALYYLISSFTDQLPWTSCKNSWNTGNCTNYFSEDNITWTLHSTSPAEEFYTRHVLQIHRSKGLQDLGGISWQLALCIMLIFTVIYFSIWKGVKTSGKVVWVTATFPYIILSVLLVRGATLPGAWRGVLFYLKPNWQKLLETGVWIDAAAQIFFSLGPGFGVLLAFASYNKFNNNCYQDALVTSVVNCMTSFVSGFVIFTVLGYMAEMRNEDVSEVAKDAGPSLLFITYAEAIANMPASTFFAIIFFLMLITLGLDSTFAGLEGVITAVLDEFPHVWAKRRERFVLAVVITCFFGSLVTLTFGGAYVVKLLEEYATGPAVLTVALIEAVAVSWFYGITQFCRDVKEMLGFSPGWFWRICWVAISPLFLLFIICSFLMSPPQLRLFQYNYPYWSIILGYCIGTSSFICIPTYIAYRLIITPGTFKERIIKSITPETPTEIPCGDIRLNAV
Description: PDSP Primary Binding target: SLC6A4 - Compounds are tested at 10 uM concentration, plate are incubated at room temperature in the dark for 90 minutes. Reaction are stopped by vacuum filtration onto 0.3% polyethyleneimine soaked filter mats using Filtermate harvester. Scintilation cocktail is then melted onto microwave-dried filters on a hot plate and the radio activity is counted in Microbia counter.
Assay [9] deals with Translocator protein (Homo sapiens) (UniProt P30536).
Chain of Translocator protein (Homo sapiens) (P30536 whole entry): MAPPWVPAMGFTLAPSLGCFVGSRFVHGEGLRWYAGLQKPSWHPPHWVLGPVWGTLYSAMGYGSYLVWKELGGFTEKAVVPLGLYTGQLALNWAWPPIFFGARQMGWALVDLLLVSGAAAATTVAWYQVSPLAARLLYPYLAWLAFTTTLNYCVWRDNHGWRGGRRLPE
Description: PDSP Primary Binding target: TSPO - Compounds are tested at 10 uM concentration, plate are incubated at room temperature in the dark for 90 minutes. Reaction are stopped by vacuum filtration onto 0.3% polyethyleneimine soaked filter mats using Filtermate harvester. Scintilation cocktail is then melted onto microwave-dried filters on a hot plate and the radio activity is counted in Microbia counter.
Assay [10] deals with Beta-1 adrenergic receptor (Homo sapiens) (UniProt P08588).
Chain of Beta-1 adrenergic receptor (Homo sapiens) (P08588 whole entry, looked up): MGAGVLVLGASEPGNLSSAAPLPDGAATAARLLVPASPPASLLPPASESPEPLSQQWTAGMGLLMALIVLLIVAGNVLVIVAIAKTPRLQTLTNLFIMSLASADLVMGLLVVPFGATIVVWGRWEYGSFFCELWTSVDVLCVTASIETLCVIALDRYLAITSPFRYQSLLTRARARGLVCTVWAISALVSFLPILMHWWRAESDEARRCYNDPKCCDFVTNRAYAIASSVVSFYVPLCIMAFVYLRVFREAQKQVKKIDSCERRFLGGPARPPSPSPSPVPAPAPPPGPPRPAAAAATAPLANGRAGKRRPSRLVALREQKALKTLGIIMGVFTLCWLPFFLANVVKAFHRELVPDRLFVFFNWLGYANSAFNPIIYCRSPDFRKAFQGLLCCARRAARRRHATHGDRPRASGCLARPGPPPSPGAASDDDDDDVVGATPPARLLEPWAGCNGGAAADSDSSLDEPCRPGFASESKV
Description: PDSP Primary Binding target: ADRB1 - Compounds are tested at 10 uM concentration, plate are incubated at room temperature in the dark for 90 minutes. Reaction are stopped by vacuum filtration onto 0.3% polyethyleneimine soaked filter mats using Filtermate harvester. Scintilation cocktail is then melted onto microwave-dried filters on a hot plate and the radio activity is counted in Microbia counter.
Assay [11] deals with T4, Muscarinic acetylcholine receptor M2 (Homo sapiens) (UniProt P08172).
T4 sequence (whole entry): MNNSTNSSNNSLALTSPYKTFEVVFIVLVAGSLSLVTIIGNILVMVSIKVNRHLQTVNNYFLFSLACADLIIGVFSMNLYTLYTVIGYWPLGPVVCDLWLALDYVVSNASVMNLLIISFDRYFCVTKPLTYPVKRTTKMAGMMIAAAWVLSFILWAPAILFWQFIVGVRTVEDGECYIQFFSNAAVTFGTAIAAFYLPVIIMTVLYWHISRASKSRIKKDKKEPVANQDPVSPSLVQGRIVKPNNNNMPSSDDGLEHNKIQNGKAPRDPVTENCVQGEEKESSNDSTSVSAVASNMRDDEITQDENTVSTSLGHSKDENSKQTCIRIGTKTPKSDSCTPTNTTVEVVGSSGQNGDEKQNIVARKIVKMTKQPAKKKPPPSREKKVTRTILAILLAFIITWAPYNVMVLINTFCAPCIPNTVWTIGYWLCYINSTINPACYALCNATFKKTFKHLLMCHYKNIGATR
Description: PDSP Primary Binding target: CHRM2 - Compounds are tested at 10 uM concentration, plate are incubated at room temperature in the dark for 90 minutes. Reaction are stopped by vacuum filtration onto 0.3% polyethyleneimine soaked filter mats using Filtermate harvester. Scintilation cocktail is then melted onto microwave-dried filters on a hot plate and the radio activity is counted in Microbia counter.

Assay [12] deals with T5, Muscarinic acetylcholine receptor M5 (Homo sapiens) (UniProt P08912).
T5 sequence (whole entry): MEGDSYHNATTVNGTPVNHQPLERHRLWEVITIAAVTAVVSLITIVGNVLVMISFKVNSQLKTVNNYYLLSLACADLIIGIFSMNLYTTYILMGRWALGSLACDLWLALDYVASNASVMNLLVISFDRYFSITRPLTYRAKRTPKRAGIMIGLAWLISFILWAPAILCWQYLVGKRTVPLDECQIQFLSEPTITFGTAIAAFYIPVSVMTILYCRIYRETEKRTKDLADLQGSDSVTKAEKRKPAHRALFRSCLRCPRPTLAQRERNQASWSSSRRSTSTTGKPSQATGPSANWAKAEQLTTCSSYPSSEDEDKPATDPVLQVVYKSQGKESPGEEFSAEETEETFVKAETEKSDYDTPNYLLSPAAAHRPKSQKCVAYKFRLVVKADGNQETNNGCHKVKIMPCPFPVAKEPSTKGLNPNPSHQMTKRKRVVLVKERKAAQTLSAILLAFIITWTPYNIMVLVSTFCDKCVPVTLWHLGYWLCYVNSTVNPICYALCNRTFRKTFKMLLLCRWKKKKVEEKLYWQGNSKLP
Description: PDSP Primary Binding target: CHRM5 - Compounds are tested at 10 uM concentration, plate are incubated at room temperature in the dark for 90 minutes. Reaction are stopped by vacuum filtration onto 0.3% polyethyleneimine soaked filter mats using Filtermate harvester. Scintilation cocktail is then melted onto microwave-dried filters on a hot plate and the radio activity is counted in Microbia counter.

Assay [13] addresses Histamine H3 receptor (Homo sapiens) (UniProt Q9Y5N1).
Description: PDSP Primary Binding target: HRH3 - Compounds are tested at 10 uM concentration, plate are incubated at room temperature in the dark for 90 minutes. Reaction are stopped by vacuum filtration onto 0.3% polyethyleneimine soaked filter mats using Filtermate harvester. Scintilation cocktail is then melted onto microwave-dried filters on a hot plate and the radio activity is counted in Microbia counter.
Assay [14] has as its target 5-hydroxytryptamine receptor 5A (Homo sapiens) (UniProt P47898).
Description: PDSP Primary Binding target: HTR5A - Compounds are tested at 10 uM concentration, plate are incubated at room temperature in the dark for 90 minutes. Reaction are stopped by vacuum filtration onto 0.3% polyethyleneimine soaked filter mats using Filtermate harvester. Scintilation cocktail is then melted onto microwave-dried filters on a hot plate and the radio activity is counted in Microbia counter.

Chain of 5-hydroxytryptamine receptor 1E (Homo sapiens) (P28566 whole entry): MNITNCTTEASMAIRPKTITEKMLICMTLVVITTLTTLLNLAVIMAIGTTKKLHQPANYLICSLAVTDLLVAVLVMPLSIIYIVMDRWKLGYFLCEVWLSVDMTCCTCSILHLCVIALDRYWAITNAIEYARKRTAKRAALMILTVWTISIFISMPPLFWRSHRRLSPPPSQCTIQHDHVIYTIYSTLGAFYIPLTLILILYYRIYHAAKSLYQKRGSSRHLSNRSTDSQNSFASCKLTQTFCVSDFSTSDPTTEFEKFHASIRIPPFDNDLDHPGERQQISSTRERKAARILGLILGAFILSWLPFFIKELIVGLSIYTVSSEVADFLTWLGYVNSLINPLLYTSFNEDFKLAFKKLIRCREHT
Chain of Sigma non-opioid intracellular receptor 1 (Homo sapiens) (Q99720 whole entry): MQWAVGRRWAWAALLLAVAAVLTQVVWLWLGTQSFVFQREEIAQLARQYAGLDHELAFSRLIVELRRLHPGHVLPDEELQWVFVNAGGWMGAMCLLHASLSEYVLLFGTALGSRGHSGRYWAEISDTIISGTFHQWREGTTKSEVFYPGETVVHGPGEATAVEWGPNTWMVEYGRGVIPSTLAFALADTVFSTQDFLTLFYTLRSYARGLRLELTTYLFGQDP
Chain of 5-hydroxytryptamine receptor 5A (Homo sapiens) (P47898 whole entry): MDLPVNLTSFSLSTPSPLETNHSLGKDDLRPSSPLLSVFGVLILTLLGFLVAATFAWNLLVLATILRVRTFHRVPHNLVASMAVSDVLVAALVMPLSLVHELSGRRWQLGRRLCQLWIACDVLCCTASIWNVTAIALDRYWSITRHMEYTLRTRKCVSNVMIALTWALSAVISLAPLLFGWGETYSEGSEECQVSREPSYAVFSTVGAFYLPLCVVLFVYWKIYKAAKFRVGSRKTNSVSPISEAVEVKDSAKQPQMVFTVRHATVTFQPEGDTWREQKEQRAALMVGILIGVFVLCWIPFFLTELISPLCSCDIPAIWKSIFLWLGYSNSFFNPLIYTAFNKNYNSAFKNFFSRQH
Chain of Histamine H3 receptor (Homo sapiens) (Q9Y5N1 whole entry): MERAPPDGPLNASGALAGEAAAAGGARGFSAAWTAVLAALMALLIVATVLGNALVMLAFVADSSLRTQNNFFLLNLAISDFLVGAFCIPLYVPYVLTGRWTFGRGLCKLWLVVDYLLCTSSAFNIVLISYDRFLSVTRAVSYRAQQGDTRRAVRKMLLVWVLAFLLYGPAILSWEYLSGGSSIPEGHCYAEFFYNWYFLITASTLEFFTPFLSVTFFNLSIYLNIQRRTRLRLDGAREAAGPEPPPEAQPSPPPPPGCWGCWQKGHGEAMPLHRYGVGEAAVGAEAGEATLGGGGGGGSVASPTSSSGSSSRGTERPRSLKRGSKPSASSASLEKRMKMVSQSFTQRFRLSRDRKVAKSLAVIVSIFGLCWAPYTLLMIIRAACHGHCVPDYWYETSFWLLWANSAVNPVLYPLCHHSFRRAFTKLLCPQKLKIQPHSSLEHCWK
Chain of 5-hydroxytryptamine receptor 6 (Homo sapiens) (P50406 whole entry): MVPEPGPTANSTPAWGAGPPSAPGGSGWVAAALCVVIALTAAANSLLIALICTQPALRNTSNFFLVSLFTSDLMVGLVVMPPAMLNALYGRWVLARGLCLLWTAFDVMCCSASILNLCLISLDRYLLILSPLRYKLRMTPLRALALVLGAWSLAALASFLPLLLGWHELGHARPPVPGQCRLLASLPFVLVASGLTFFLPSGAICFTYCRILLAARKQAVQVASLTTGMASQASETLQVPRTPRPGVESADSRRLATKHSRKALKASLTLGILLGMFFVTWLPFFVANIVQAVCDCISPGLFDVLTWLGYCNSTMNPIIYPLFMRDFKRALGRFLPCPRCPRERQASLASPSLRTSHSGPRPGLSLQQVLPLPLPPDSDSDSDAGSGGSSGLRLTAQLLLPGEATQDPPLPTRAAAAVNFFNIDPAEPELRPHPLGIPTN

On to `CN(C)S(=O)(=O)c1ccc(NC(=S)N2CCC(C(O)(c3ccccc3)c3ccccc3)CC2)cc1`, for which the inhibition was 14.4% in [1]; 21.8% in [2]; -6.86% in assay [3]; 7.01% in assay [4]; 8.14% in assay [5]; 45.3% in assay [6]. Besides, the inhibition in assay [7] was 15.8%; in assay [8], 16%; in [9] it was 75.4%.
Turning to `COc1ccc2cc(S(=O)(=O)N[C@H](CC(=O)N[C@H](Cc3ccc(CN4[C@H](C)CCC[C@@H]4C)cc3)C(=O)N(C)C(C)C)c3ccc4c(c3)OCO4)ccc2c1`, the inhibition was 33.5% in [1]; 71.8% in assay [2]; -0.19% in assay [10]; 69.6% in [11]; 46.7% in assay [3]; 52.8% in assay [12]. Moreover, the inhibition is 62.1% in [13]; 20.3% in assay [14]; 4.73% in [5]; 102% in assay [6]; 25.7% in assay [7]; 0.6% in assay [9].
On to `CN1C[C@H](C(=O)N[C@]2(C)O[C@@]3(O)[C@@H]4CCCN4C(=O)[C@H](Cc4ccccc4)N3C2=O)C[C@@H]2c3cccc4[nH]cc(c34)C[C@H]21`, for which the inhibition was 115% in assay [2]; 17.8% in [10]; 4.48% in assay [11]; -5.91% in [3]; 7.31% in assay [12]; 38.2% in assay [13]. In addition, the inhibition in [4] is 76.1%; in assay [14], 97.6%; in assay [5], 97.4%; in assay [6], 72.9%; in assay [7], 21.2%; in assay [9], 19%.
As to `CC1(C)SSC(C)(C)[C@@H](NC(=O)[C@@H](N)Cc2ccc(O)cc2)C(=O)NCC(=O)N[C@@H](Cc2ccccc2)C(=O)N[C@H]1C(=O)O`, the inhibition in assay [1] is 6.52%; in assay [2] it was -6.75%; in assay [10], -5.41%; in assay [11] it was -9.99%; in [3] it was -2.51%; in [13], -2.58%. Besides, the inhibition in assay [4] was 17.2%; in [14], -9.01%; in assay [6], 21.7%; in assay [7] it was 3.43%.
As for `CS(=O)(=O)NC[C@H]1CC[C@H](Nc2nc3c(s2)CCSc2ccccc2-3)CC1`, the inhibition in assay [1] was 23.8%; in assay [2], 37.1%; in assay [12], -4.92%; in assay [13], -7.45%; in [4], 6.22%; in [14], 64.7%. Besides, the inhibition was 35% in assay [5]; 45.3% in assay [6]; 7.48% in assay [7]; 13.6% in assay [8]; 35.9% in assay [9].
For `COc1cc2nc(N3CCN(C(=O)c4ccco4)CC3)nc(N)c2cc1OC`, the inhibition in assay [2] is 97.1%; in [10], 2.66%; in [11] it was 15.9%; in assay [3], 2.17%; in assay [12], 3.19%; in [13], 8.21%. In addition, the inhibition was 2.33% in [4]; 83.4% in assay [14]; 19.4% in assay [5]; 68% in [6]; 26.5% in assay [7]; 75.9% in assay [9].
As to `CC(C)NCC(O)COc1cccc2[nH]ccc12` (centres undefined), the inhibition is 1.35% in assay [2]; 70.9% in assay [10]; -9.11% in assay [11]; 4.2% in [3]; 10.5% in assay [12]; 20% in assay [4]. Also, the inhibition is 52.6% in assay [14]; 4.75% in assay [5]; 38.7% in [6]; 27.1% in assay [7]; 38.5% in assay [9].
As for `Cc1nc(C#Cc2ccnc(Cl)c2)c(C)n1-c1ccc(OC(F)(F)F)cc1`, the inhibition in assay [1] is 67.9%; in assay [2] it was -5.37%; in assay [10], 29.4%; in assay [11] it was -0.78%; in assay [3], 15.4%; in [12] it was -6.77%. The inhibition in assay [13] is 0.66%; in assay [4], 20.5%; in assay [14] it was 30%; in [5] it was -0.41%; in assay [6] it was 56.3%; in assay [7], 1.45%. Also, the inhibition in [9] is 64.3%.
With `Cc1c(F)cccc1NC(=O)Nc1ccc(Cl)c(S(=O)(=O)[C@H]2CCCNC2)c1O`, the inhibition is 3.18% in assay [1]; -6.11% in assay [2]; -3.99% in assay [3]; -6.67% in assay [4]; 16.5% in assay [14]; -2.87% in assay [5]. The inhibition is 9.71% in [6], -2.95% in [8] and 8.9% in assay [9].
Consider `FC(F)(F)c1cccc(-c2noc(-c3cc(-c4ccccc4)c(C(F)(F)F)s3)n2)c1`, for which the inhibition in assay [2] was -0.68%; in assay [10] it was -3.82%; in assay [11] it was -7.48%; in assay [3] it was -0.35%; in assay [12] it was -4.18%; in assay [4], 10.4%. In addition, the inhibition is 18.8% in [14], -0.25% in [5], -0.34% in assay [6] and 5.27% in [9].

One may read the inhibition as the drop in the measured response relative to a control, in per cent.

These data come from ChEMBL document CHEMBL5442219.
